Source: PMC9945734 (BMC Medicine, 2023)

Experiments:
[1] = test system: DU 145 (KLF5 null) cells expressing KLF5^K369Q; assay: CCK-8 cell viability assay; assay type: cell-based, human; settings: for cell number: DU 145-KQ
Description: (§1) According to the manufacturer's instructions, cell viability was measured using a kit from Beyotime Biotechnology. Briefly, cells were seeded onto 96-well plates at 5 × 10^3 cells per well, incubated overnight, and then treated for 48 h with drugs at 0, 0.02, 0.05, 0.14, 0.41, 1.23, 3.7, 11.1, 33.3, and 100 μM. Four drugs were analyzed: furagin, nifuratel, nitazoxanide, and retapamulin. At the end of drug treatment, the medium was removed, the CCK-8 solution was added into each well at 100 μL/well and incubated for 1.5 h at 37°C, and the optical density (OD) was measured at 450 nm using a microplate reader (BioTek).
(§2) We also tested a wider range of NTZ concentrations in PC-3-KQ and DU 145-KQ cells using the CCK-8 assay by seeding 2 × 10^3 cells and 2.5 × 10^3 cells onto each well of 96-well plates. PC-3-KQ cells were treated with NTZ at 0, 0.01, 0.1, […], 2.5, and 5 μM, while DU 145-KQ cells were treated with NTZ at 0, 0.01, 0.1, 5, 10, and 20 μM for 0, 24, 48, and 72 h. The number of viable cells was determined using the CCK-8 solution as described above.

[2] = test system: PC-3 (KLF5 null) cells expressing KLF5^K369Q; assay: CCK-8 cell viability assay; assay type: cell-based, human; settings: for cell number: PC-3-KQ
Description: as §1, §2

MYBL2 = MYBL2 expression by qRT-PCR and western blotting; assay type: cell-based, human; settings: PC-3 and DU 145 cells expressing KLF5^K369Q; dose- or time-dependent
Description: Total RNA was extracted from cells using the Eastep Super total RNA extraction kit (Cat #: LS1040, Promega, Shanghai, China) and quantified using the NanoDrop One (Thermo Fisher Scientific, Madison, USA). Single-strand cDNA was synthesized from 1 μg of total RNA using the HiScript III All-in-one RT SuperMix kit (Cat #: R333-01, Vazyme, Nanjing, China). For qRT-PCR, the cDNA template was mixed with the SYBR Green reagent in enzyme-free water, and the Qtower3 touch system (Analytik Jena, Jena, Germany) was used for PCR with the following program: initial denaturation at 95°C for 5 min, 40 cycles of 95°C for 30 s, 60°C for 30 s, and 72 °C for 30 s, and a final melting for 15 s. GAPDH was used as an internal control. […].
Cells in 6-well plates were washed with cold PBS and collected in a lysis buffer containing phosphatase and protease inhibitors (Cat #: P1045, Beyotime) to extract proteins. After centrifugation for 10 min at 4°C in a refrigerated centrifuge, the supernatant was collected and mixed with the 4× loading buffer, boiled in a metal heat bath at 100°C for 10 min, and then subjected to 10% SDS-PAGE. Proteins were transferred onto an activated PVDF membrane (0.45 μm pore-size, Cat #: IPVH00010, Millipore, Carrigtwohill, Ireland). […]

MMP9 = MMP9 immunohistochemical staining of bone metastases; assay type: in vivo, Balb/c nude mice; settings: KLF5^K369Q-induced bone metastases
Description: Immunohistochemical staining was conducted following established procedures. Briefly, 4-μm sections of bone tissues were deparaffinized in xylene and rehydrated in gradient ethanol. The endogenous antigen was retrieved by incubating slides in 10 mM sodium citrate buffer (Cat #: C1010, Solarbio, Beijing, China) overnight in an oven at 65°C. After antigen retrieving, tissue sections were incubated with 3% hydrogen peroxide at room temperature for 10 min to block the endogenous […] activity. They were then incubated in a blocking solution (0.1% albumin bovine V mixed with 10% goat serum) for 40 min, and a solution containing a primary antibody (MMP9, 1:1000, Cat #: ab76003, Abcam, Cambridge, UK; MYBL2, 1:100, Cat #: ab76009, Abcam) for 1.5 h. After rinsing with PBS for 3 times, slides were incubated with the secondary antibody solution for 15 min and then with the DAB solution using the MaxVision II HRP kit (Cat #: KIT-5920, MXB Biotechnologies, Fuzhou, China). Nuclei were counterstained with hematoxylin for 2 min. Slides were then dehydrated with gradient ethanol (75–100%) and xylene and mounted with coverslips using the quick-hardening mounting medium. All slides were scanned using an Aperio VERSA 8 Scanner System (Leica, Wetzlar, Germany) and analyzed using the Image J software (Image J 1.48v, NIH, Bethesda, MD, USA).

[3] = test system: osteoclasts in mouse femurs; assay: TRAP staining of bone tissue sections; assay type: in vivo, Balb/c nude mice; settings: compared to the vehicle group
Description: The procedure for TRAP staining in tissues was described in our previous study. Briefly, deparaffinized and hydrated bone sections were incubated in 0.2 M acetic acid for 20 min and then in 0.2 M acetic acid containing the fast red TR salt (1.1 mg/mL) and naphthol AS-MX phosphate (0.5 mg/mL) for about 45 min at 37°C. When TRAP-positive cells turn red, as monitored using microscopy, slides were counterstained with hematoxylin and mounted with coverslips using glycerin. Slides were then scanned and analyzed as described above.

RAW264.7 cells = assay: CCK-8 cell viability assay; assay type: cell-based; settings: concentrations smaller than 25 μM; 48 h
Description: According to the manufacturer's instructions, cell viability was measured using a kit from Beyotime Biotechnology. Briefly, cells were seeded onto 96-well plates at 5 × 10^3 cells per well, incubated overnight, and then treated for 48 h with drugs at 0, 0.02, 0.05, 0.14, 0.41, 1.23, 3.7, 11.1, 33.3, and 100 μM. […] At the end of drug treatment, the medium was removed, the CCK-8 solution was added into each well at 100 μL/well and incubated for 1.5 h at 37°C, and the optical density (OD) was measured at 450 nm using a microplate reader (BioTek).

[4] = lower concentrations (0–0.1 μM), 0 to 72 h

Structure (SMILES): CC(=O)Oc1ccccc1C(=O)Nc1ncc([N+](=O)[O-])s1 [Nitazoxanide]
- cell number ([1]; higher concentrations (up to 20 μM)): decreased cell number
- cell number [1, 4]: did not affect cell number
- IC50 ([1]; Homo sapiens, DU 145 (KLF5 null), KLF5^K369Q, CCK-8, 48 h): 22.7 ± 2.3 µM
- IC50 ([2]; Homo sapiens, PC-3 (KLF5 null), KLF5^K369Q, CCK-8, 48 h): 5.4 ± 0.5 µM
- cell number ([2]; higher concentrations (up to 5 μM)): decreased cell number
- cell number [2, 4]: did not affect cell number
- expression of MYBL2 (mRNA and protein) (MYBL2): reduced the expression of MYBL2
- MMP9 protein expression (IHC) (MMP9): decrease of MMP9 protein expression
- number of TRAP^+ cells in mouse femurs [3]: significantly reduced the number of TRAP^+ cells
- cytotoxicity (cell viability) (RAW264.7 cells): did not exhibit detectable cytotoxicity
